Experimental data as given in the supplement of paper PMC10307832.

What was measured:
Test in all cases: relative viability (nuclei count vs DMSO), 5 days (fraction); higher = more cells survive
[1] = system: 201T
In short: (§1)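 One day after seeding in 1536-well plates, lung cancer cell lines were dosed by pin tool. Dosing was either single-drug or a fixed anchor-drug dose plus five library-drug doses (not always all listed) in √10 steps. After 5 days, nuclei were stained in one fix-and-stain step and counted on 4× images, and relative viability is the nuclei count of treated wells over that of vehicle wells, given as the median of duplicate plates.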

[2] = system: ABC-1
In short: as §1

[3] = system: COR-L23
In short: as §1

[4] = system: EKVX
In short: as §1

[5] = system: EPLC-272H
In short: as §1

[6] = system: LOU-NH91
In short: as §1

[7] = system: NCI-H1563
In short: as §1

[8] = system: NCI-H1650
In short: as §1

[9] = system: NCI-H1734
In short: as §1

[10] = system: NCI-H1793
In short: as §1

[11] = system: NCI-H1993
In short: as §1

[12] = system: NCI-H2023
In short: as §1

**Q.** How did the relative viability ([1]; first compound 0.04 µM) turn out when `COc1cc(N2CCC(C(N)=O)CC2)ccc1Nc1nc(N)c(Cl)c(Nc2ccccc2S(=O)(=O)C(C)C)n1` [HG-5-88-01] + COc1cc2c(Oc3ccc(NC(=O)C4(C(=O)Nc5ccc(F)cc5)CC4)cc3F)ccnc2cc1OCCCN1CCOCC1 [Foretinib] (partner 0.25 µM) was run?
**A.** The relative viability was 1.18.

**Q.** What about the relative viability ([1]; first compound 0.1265 µM) of the same molecule?
**A.** The relative viability was 1.09.

**Q.** What about the relative viability ([1]; first compound 0.4 µM) of the same molecule?
**A.** Its relative viability is 1.12.

**Q.** And the relative viability ([1]; first compound 1.265 µM)?
**A.** The relative viability was 0.444.

**Q.** What about the relative viability ([1]; first compound 4 µM) of the same molecule?
**A.** The relative viability was 1.02.

**Q.** And the relative viability ([2]; first compound 0.04 µM)?
**A.** The relative viability was 0.931.

**Q.** What about the relative viability ([2]; first compound 0.1265 µM) of the same molecule?
**A.** The relative viability was 1.16.

**Q.** And the relative viability ([2]; first compound 0.4 µM)?
**A.** The relative viability was 0.73.

**Q.** What about the relative viability ([2]; first compound 1.265 µM) of the same molecule?
**A.** Its relative viability is 0.719.

**Q.** What about the relative viability ([2]; first compound 4 µM) of the same molecule?
**A.** Its relative viability is 0.616.

**Q.** And the relative viability ([3]; first compound 0.04 µM)?
**A.** Its relative viability is 0.903.

**Q.** And the relative viability ([3]; first compound 0.1265 µM)?
**A.** Its relative viability is 0.995.

**Q.** What about the relative viability ([3]; first compound 0.4 µM) of the same molecule?
**A.** Its relative viability is 0.99.

**Q.** What about the relative viability ([3]; first compound 1.265 µM) of the same molecule?
**A.** Its relative viability is 0.768.

**Q.** What about the relative viability ([3]; first compound 4 µM) of the same molecule?
**A.** The relative viability was 0.805.

**Q.** What about the relative viability ([4]; first compound 0.04 µM) of the same molecule?
**A.** Its relative viability is 0.876.

**Q.** And the relative viability ([4]; first compound 0.1265 µM)?
**A.** Its relative viability is 0.759.

**Q.** And the relative viability ([4]; first compound 0.4 µM)?
**A.** The relative viability was 0.305.

**Q.** And the relative viability ([4]; first compound 4 µM)?
**A.** The relative viability was 0.757.

**Q.** And the relative viability ([5]; first compound 0.04 µM)?
**A.** The relative viability was 0.761.

**Q.** What about the relative viability ([5]; first compound 0.1265 µM) of the same molecule?
**A.** The relative viability was 0.735.

**Q.** What about the relative viability ([5]; first compound 0.4 µM) of the same molecule?
**A.** Its relative viability is 0.593.

**Q.** What about the relative viability ([5]; first compound 1.265 µM) of the same molecule?
**A.** Its relative viability is 0.472.

**Q.** What about the relative viability ([5]; first compound 4 µM) of the same molecule?
**A.** Its relative viability is 0.0478.

**Q.** What about the relative viability ([6]; first compound 0.04 µM) of the same molecule?
**A.** The relative viability was 0.905.

**Q.** And the relative viability ([6]; first compound 0.1265 µM)?
**A.** Its relative viability is 0.902.

**Q.** And the relative viability ([6]; first compound 0.4 µM)?
**A.** The relative viability was 0.872.

**Q.** And the relative viability ([6]; first compound 1.265 µM)?
**A.** Its relative viability is 0.455.

**Q.** What about the relative viability ([6]; first compound 4 µM) of the same molecule?
**A.** Its relative viability is 0.672.

**Q.** What about the relative viability ([7]; first compound 0.04 µM) of the same molecule?
**A.** The relative viability was 1.

**Q.** What about the relative viability ([7]; first compound 0.1265 µM) of the same molecule?
**A.** The relative viability was 1.01.

**Q.** What about the relative viability ([7]; first compound 0.4 µM) of the same molecule?
**A.** The relative viability was 0.963.

**Q.** And the relative viability ([7]; first compound 1.265 µM)?
**A.** Its relative viability is 0.866.

**Q.** What about the relative viability ([7]; first compound 4 µM) of the same molecule?
**A.** Its relative viability is 0.833.

**Q.** What about the relative viability ([8]; first compound 0.04 µM) of the same molecule?
**A.** Its relative viability is 1.11.

**Q.** What about the relative viability ([8]; first compound 0.1265 µM) of the same molecule?
**A.** The relative viability was 1.2.

**Q.** And the relative viability ([8]; first compound 0.4 µM)?
**A.** The relative viability was 1.26.

**Q.** And the relative viability ([8]; first compound 1.265 µM)?
**A.** The relative viability was 0.751.

**Q.** And the relative viability ([8]; first compound 4 µM)?
**A.** The relative viability was 0.836.

**Q.** And the relative viability ([9]; first compound 0.04 µM)?
**A.** The relative viability was 1.05.

**Q.** What about the relative viability ([9]; first compound 0.1265 µM) of the same molecule?
**A.** The relative viability was 0.8.

**Q.** What about the relative viability ([9]; first compound 0.4 µM) of the same molecule?
**A.** The relative viability was 0.793.

**Q.** What about the relative viability ([9]; first compound 1.265 µM) of the same molecule?
**A.** The relative viability was 0.576.

**Q.** And the relative viability ([9]; first compound 4 µM)?
**A.** Its relative viability is 0.644.

**Q.** What about the relative viability ([10]; first compound 0.1265 µM) of the same molecule?
**A.** Its relative viability is 0.787.

**Q.** What about the relative viability ([10]; first compound 0.4 µM) of the same molecule?
**A.** Its relative viability is 0.615.

**Q.** And the relative viability ([10]; first compound 4 µM)?
**A.** Its relative viability is 0.423.

**Q.** What about the relative viability ([11]; first compound 0.04 µM) of the same molecule?
**A.** The relative viability was 0.739.

**Q.** What about the relative viability ([11]; first compound 0.1265 µM) of the same molecule?
**A.** Its relative viability is 0.727.

**Q.** And the relative viability ([11]; first compound 0.4 µM)?
**A.** The relative viability was 0.725.

**Q.** What about the relative viability ([11]; first compound 1.265 µM) of the same molecule?
**A.** The relative viability was 0.586.

**Q.** And the relative viability ([11]; first compound 4 µM)?
**A.** The relative viability was 0.623.

**Q.** What about the relative viability ([12]; first compound 0.04 µM) of the same molecule?
**A.** Its relative viability is 1.

**Q.** And the relative viability ([12]; first compound 0.1265 µM)?
**A.** Its relative viability is 0.899.

**Q.** And the relative viability ([12]; first compound 0.4 µM)?
**A.** The relative viability was 0.628.

**Q.** What about the relative viability ([12]; first compound 1.265 µM) of the same molecule?
**A.** Its relative viability is 0.399.
